Literature values, collected in US9181307B2, “Influenza A 2009 pandemic H1N1 polypeptide fragments comprising endonuclease activity and their use” (priority 2010, dated 2015).

Molecular target: influenza endonuclease (Influenza A virus, UniProt P03433)
Conditions: recently reported, Kuzuhara 2009; cited from earlier work

## O=C(O[C@@H]1Cc2c(O)cc(O)cc2O[C@@H]1c1cc(O)c(O)c(O)c1)c1cc(O)c(O)c(O)c1 [EGCG, [(2R,3R)-5,7-dihydroxy-2-(3,4,5-trihydroxyphenyl)chroman-3-yl]3,4,5-trihydroxybenzoate]
  inhibits the influenza endonuclease: inhibits the influenza endonuclease
